In US6809120B1, “Composition containing propargylamine for enhancing cancer therapy” (University of Saskatchewan Technologies Inc., priority 1998, dated 2004):

Key:
[1] = test system: rat2 cells; assay: In vitro clonogenic cell survival assay, modulation of cisplatinum toxicity in normal cells (RATIO method); assay type: cell-based, rat; conditions: with cisplatinum
Description: (§1) The protocol detailed below can be used for any normal/tumorigenic cell pair which will attach to plastic. Non-adherent lines (which includes most tumor cells, including NW16; consult references 5-10) require quantitation in soft agar. The present experiments are based on i) rat2 cells, a phenotypically normal, established rat fibroblast line and, ii) a tumorigenic derivative thereof, NW16 cells, which are rat2 cells transformed by a Fujinami sarcoma virus oncogene (see work of A. Pawson and P130^gag-fps). Rat2 and NW16 cells are maintained in a sub-confluent randomly-proliferating state in Dulbecco's modified minimal essential media with 10% (vol/vol) calf serum in plates incubated at 37° C. in a humidified CO2 (10%) incubator. All experiments reported rely on clonogenic cell survival assays (see references 4-6). Assays using rat2 (normal cells) were performed as follows: cells are exposed, in 10 cm culture dishes, to various drugs in media plus serum for varying lengths of time; seeding is at varying cell numbers, over log10 ranges, depending upon the degree of killing anticipated. [For the figure presented, incubation was for 72 hours prior to washing and assessment of clonogenic survival]. Both control and the experimental cultures are then gently washed, twice, with phosphate buffered saline, then once more with media minus serum, and then left in media plus serum, undisturbed until macroscopic colonies appear (7-9 days of incubation). The colonies are then fixed and stained with saturated methylene blue in 50% methanol and counted. The number of colonies, evaluated from 2 or more sets of duplicate cultures seeded at initial densities differing by factors of 10, are determined and converted to relative number of colonies, using the 0-hour control value as 1.0. Assays of NW16 cells were similar; however, because these cells are poorly adherent, following drug exposure, the washing procedure is modified, as is the quantitation of survivors step. In the latter case, quantitation requires plating the cells in soft agar (references 5-10).
A simplified presentation of the data, by the RATIO method, is show in FIG. 1. […] Ratios greater than unity indicate that the modulator has conferred a protective response, whereas ratios less than unity indicate an enhanced cell killing.

[2] = test system: NW16 cells; assay: In vitro clonogenic cell survival assay in soft agar, modulation of cisplatinum toxicity in tumorigenic cells (RATIO method); assay type: cell-based, rat; conditions: for enhanced killing of tumor cells in the presence of cisplatinum (result in words): in vitro fibroblast model
Description: as §1, with “5-10). […]” for “5-10).”

[3] = test system: normal femoral bone marrow cells (CFU-C/GM); assay: In vivo assessment of anticancer drug modulators: relative cell survival of normal femoral bone marrow cells in P388-bearing mice; conditions: for toxicity of cisplatinum to the marrow cells in the presence of modulator / protection of normal bone marrow cells (result in words): DBA/2J mice with P388, ip; for toxicity of cisplatinum to the marrow cells in the presence of modulator: cisplatinum 0.2 mg plus modulator, 48 h; for protection of normal bone marrow cells (result in words): with cisplatinum 0.2 mg, Histidinol 5 mg/injection or R-2HPA 0.38 ug/injection x5, 48 h after treatment, FIG. 2
Protocol: (§2) Seven groups of mice were treated and assessed in this model as follows:
(§3) P388 cells (1 million) were injected into the tail vein of 22 female DBA/2J mice (Protocol first developed in reference 6 and 8). The mice were then randomly divided into the above groups and injected (ip) with drugs 96 h later. Doses were cisplatinum 0.2 mg at 0 hour; Histidinol 5 mg/injection and R-2HPA 0.38 ug/injection; administered 5 times at −2, 0, +2, +4, and +6 hours. 48 h after drug treatment, cells from the femurs of the mice were harvested, washed and plated (at log10 dilutions) so as to allow quantitative and specific relative cell survival values to be generated for the responses of normal femoral bone marrow cells (specifically, CFU-C/GM or granulocyte/macrophage precursor cells) and clonogenic P388 leukemia cells (8).

[4] = test system: P388 leukemia cells; assay: In vivo assessment of anticancer drug modulators: relative cell survival of clonogenic P388 leukemia cells in femurs of mice; conditions: DBA/2J mice; for increase of cisplatinum toxicity to the leukemia cells in the presence of modulator / enhanced killing by cisplatinum of P388 cells (result in words): ip, 48 h; for increase of cisplatinum toxicity to the leukemia cells in the presence of modulator: cisplatinum 0.2 mg plus modulator; for enhanced killing by cisplatinum of P388 cells (result in words): with cisplatinum 0.2 mg, Histidinol 5 mg/injection or R-2HPA 0.38 ug/injection x5, FIG. 3
Protocol: as §2, §3

Compound | protection of normal fibroblasts from cisplatinum (result in words) ([1]; FIG. 1) | enhanced killing of tumor cells in the presence of cisplatinum (result in words) [2] | toxicity of cisplatinum to the marrow cells in the presence of modulator [3] | protection of normal bone marrow cells (result in words) [3] | increase of cisplatinum toxicity to the leukemia cells in the presence of modulator [4] [fold] | enhanced killing by cisplatinum of P388 cells (result in words) [4] | also measured
C#CCN(C)[C@H](C)CCCCC [R-2HMP, R-2-heptyl-methylpropargylamine] | protect normal cells | enhance the killing of tumor cells |  |  |  |  | concentration at which the effect reverses to a protective effect in tumorigenic cells ([2]; NW16 tumorigenic cells, with cisplatinum, FIG. 1): ≥ 10^−9 M
C#CCN[C@H](C)CCCCC [R-2HPA, R-2-heptyl-propargylamine] | protect normal cells | enhance the killing of tumor cells | essentially eliminated | effective at protecting normal bone marrow cells | ~1000 | enhanced the killing by cisplatinum of P388 cells | protection of normal fibroblasts from cisplatinum (result in words) ([1]; FIG. 1, listed as R-2BPA): more potent; therapeutic index between protection of healthy normal cells and killing of cancerous cells ([4]; R-2HPA 0.38 ug dose with cisplatinum): about 50,000
C#CCN(C)[C@@H](C)CCCCC [S-2HMP] | inactive |  |  |  |  |  | 
N.N.[Cl][Pt][Cl] [cisplatinum] |  |  |  |  |  |  | effectiveness at killing normal marrow cells relative to intrafemoral leukemia cells, drug used alone ([3]; cisplatinum 0.2 mg ip alone, DBA/2J mice with P388, 48 h): about 100 times
N[C@H](CO)Cc1c[nH]cn1 [histidinol, L-histidinol, reference compound] | exhibits similar properties |  | essentially eliminated | effective at protecting normal bone marrow cells | ~1000 | enhanced the killing by cisplatinum of P388 cells | 
R-deprenyl [reference compound] | less efficacious |  |  |  |  |  | 
